“And” between values parts separate entries of the source, which are not always exact repeats. Equal values may be shown once.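 Protocol summary: plate cells (96-well), add compound at 5 concentrations, incubate 48 h, interpolate endpoints linearly. Abbreviation: GI50, concentration required for 50% inhibition of growth. TGI marks complete inhibition of growth.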
How the values were obtained:
Test in all cases: DTP human tumour cell line panel, 48 h
[1] = test system: UACC-257 melanoma
[2] = test system: NCI/ADR-RES ovarian
[3] = test system: OVCAR-3 ovarian
[4] = test system: OVCAR-5 ovarian
[5] = test system: MDA-N
[6] = test system: CAKI-1 renal
[7] = test system: SF-268 CNS
[8] = test system: KM12 colon
[9] = test system: HL-60(TB) leukemia
[10] = test system: SW-620 colon

Row | Compound | TGI [1] | TGI [2] [µM] | TGI [3] | TGI [4] | TGI [5] | TGI [6] | TGI [7] | TGI [8] | TGI [9] [µM] | TGI [10] [µM] | GI50 [1] [µM] | GI50 [2] [µM] | GI50 [3] [µM] | GI50 [4] [µM] | GI50 [5] [µM] | GI50 [6] [µM] | GI50 [7] [µM] | GI50 [8] [µM]
1 | COC(=O)C1=Nc2c(C)nn(-c3ccccc3)c2N=C(c2ccccc2)C1 | > 10 µM | > 10 | > 10 µM | > 10 µM | > 10 µM | > 10 µM | > 10 µM | > 10 µM | > 10 | > 10 | – | – | – | – | – | – | – | –
2 | CC12CCCC3(CC(=O)C(C)(C)C3C(=O)C1)C2 (stereo unspecified) | > 100 µM | > 100 | > 100 µM | > 100 µM | > 100 µM | > 100 µM | > 100 µM | > 100 µM | > 100 | > 100 | – | – | – | – | – | – | – | –
3 | CC(C)OC(=O)OCSc1ccccc1N=Cc1cccc([N+](=O)[O-])c1 | > 10 µM | > 10 | > 10 µM | > 10 µM | > 10 µM | > 10 µM | > 10 µM | > 10 µM | > 10 | > 10 | – | – | – | – | – | – | – | –
4 | CCOC(=O)/C=C(\C(=O)OCC)n1ccc(=O)n(Cc2cn(COCCOC(C)=O)nn2)c1=O | 47.2 µM | 52.8 | 48 µM | 55.2 µM | > 100 µM | 21.2 µM | > 57.6 µM | > 54.6 µM | 41.3 | 31.4 | – | – | – | – | – | – | – | –
5 | C=C(CN(C)C)C(=O)c1ccccc1[N+](=O)[O-] | 29.7 µM and 32.8 µM | 48.9 | 37 µM and 40.7 µM | 29.4 µM and 31.1 µM | 27.9 µM and 25.3 µM | 28.2 µM and 2.88 µM | 51.4 µM and 58.3 µM | 46.1 µM and 37.5 µM | 8.2 | 31.3 | 14.9 | 5.61 | 14.7 | 16.3 | 10.6 | 1.55 | 20.7 | 15.6
6 | S=c1cc(-c2ccc3c(c2)OCO3)s[nH]1 | > 100 µM | > 100 | > 100 µM | > 100 µM | > 100 µM | > 100 µM | > 100 µM | > 100 µM | > 100 | > 100 | – | – | – | – | – | – | – | –
7 | CC(=O)c1cnc2oc3ccc(O)cc3c2c1-c1ccccc1 | > 100 µM | 75 | 82.6 µM | > 100 µM | > 100 µM | > 100 µM | > 100 µM | > 100 µM | > 100 | > 100 | – | 19.6 | – | – | – | – | 27.7 | 40.8
8 | O=C(N/N=C/c1ccc(Br)cc1)N/N=C/c1ccc(Br)cc1 | 40.2 µM | 29.6 | 14.9 µM | 95.8 µM | 37.5 µM | 18 µM | 24 µM | 78.2 µM | 31.1 | 30.7 | – | – | – | – | – | – | – | –
9 | CNC(=O)CCCNC(=O)CCCC(=O)N(C)C | > 100 µM | > 100 | > 100 µM | > 100 µM | > 100 µM | > 100 µM | > 100 µM | > 100 µM | > 100 | > 100 | – | – | – | – | – | – | – | –
10 | Cc1ccc(C2=CC(=O)/C(=C\C(=O)c3ccc(Cl)cc3)O2)cc1 | 4.75 µM | 49.6 | 18.4 µM | 40.6 µM | 16.2 µM | 4.38 µM | 36.3 µM | 42.9 µM | 4.74 | 6.95 | – | – | – | – | – | – | – | –
11 | NC(=O)N/N=C1\CC2C3CC4C2C4C13 (stereo unspecified) | > 100 µM | > 100 | > 100 µM | > 100 µM | > 100 µM | > 100 µM | > 100 µM | > 100 µM | > 100 | > 100 | – | – | – | – | – | – | – | –
12 | C[n+]1c(-c2ccc(/C=C/C=N\NC(=O)c3ccc(C(=O)N/N=C\C=C\c4ccc(-c5cn6ccccc6[n+]5C)cc4)cc3)cc2)cn2ccccc21 | > 100 µM | > 100 | > 100 µM | > 100 µM | > 100 µM | > 60.4 µM | > 100 µM | > 57.5 µM | > 65.7 | > 100 | – | – | – | – | – | – | – | –
13 | CC(C)(C)c1cc(C(=O)/C=C/c2ccc3c(c2)OCO3)cc(C(C)(C)C)c1O | 22.1 µM | 16.8 | 23 µM | > 76.9 µM | 5.53 µM | > 100 µM | > 41.6 µM | 22.7 µM | 13.9 | 35.8 | – | – | – | – | – | – | – | –
